According to ChEMBL document CHEMBL1201862, “PubChem BioAssay data set” (2004):
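How tested: cells in 96-well plates exposed to compound for 48 hours at five concentrations. GI50 is the concentration that inhibits growth by half.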 Active and inactive are the calls of the source. Cut-off read from the data, not from the text of the source: active = GI50 up to about 1.1 µM and inactive = higher.

Assays:
Assay in all cases: NCI-60 cell line screen, 48 h
[1] = test system: CCRF-CEM
[2] = test system: HCT-15
[3] = test system: DU-145
[4] = test system: IGROV-1
[5] = test system: COLO 205
[6] = test system: A498
[7] = test system: HOP-62
[8] = test system: NCI/ADR-RES
[9] = test system: NCI-H460
[10] = test system: SK-MEL-28
[11] = test system: Hs-578T
[12] = test system: OVCAR-8
[13] = test system: 786-0
[14] = test system: SK-MEL-2
[15] = test system: HCC 2998
[16] = test system: MDA-MB-435
[17] = test system: KM12
[18] = test system: PC-3
[19] = test system: HL-60

`O=C(Cc1ccccc1)NN1C(=O)/C(=C\c2ccc([N+](=O)[O-])cc2)S/C1=N\c1ccccc1` was tested, and the GI50 [1] was 68.9 µM (inactive), the GI50 [2] was over 100 µM and the GI50 [3] was > 100 µM (inactive). For the same compound, the GI50 [4] was > 100 µM (inactive), the GI50 [5] was > 100 µM (inactive) and the GI50 [6] was > 100 µM (inactive). For the same compound, the GI50 [7] was > 100 µM (inactive), the GI50 [8] was > 100 µM (inactive) and the GI50 [9] was > 100 µM (inactive). For the same compound, the GI50 [10] was > 100 µM (inactive), the GI50 [11] was > 100 µM (inactive) and the GI50 [12] was 77.6 µM (inactive). The GI50 [13] was > 100 µM (inactive), the GI50 [14] was > 100 µM (inactive) and the GI50 [15] was > 100 µM (inactive). The GI50 [16] was > 100 µM (inactive) and the GI50 [17] was > 100 µM (inactive).

`Oc1cn(-c2ccc(Cl)cc2)nc1-c1nnc(Nc2ccccc2)o1` was tested, and the GI50 [2] was 10.4 µM, the GI50 [3] was 15.4 µM (inactive) and the GI50 [4] was 15.2 µM (inactive). The GI50 [5] was 21.4 µM (inactive), the GI50 [6] was 12.6 µM (inactive) and the GI50 [7] was 17.7 µM (inactive). For the same compound, the GI50 [8] was 14.9 µM (inactive), the GI50 [9] was 19.9 µM (inactive) and the GI50 [10] was 17.7 µM (inactive). The GI50 [11] was 24.1 µM (inactive), the GI50 [12] was 20.9 µM (inactive) and the GI50 [13] was 16.6 µM (inactive). The GI50 [14] was 20.2 µM (inactive), the GI50 [16] was 16.8 µM (inactive) and the GI50 [17] was 17.7 µM (inactive).

For `COc1ccc(C2=NN(c3ccccc3)C(c3cc4cc(Br)ccc4nc3Cl)C2)cc1` (stereo unspecified), the GI50 [1] was 24.2 µM (inactive), the GI50 [2] was 11.6 µM and the GI50 [3] was > 25 µM (inactive). For the same compound, the GI50 [18] was 23 µM (inactive), the GI50 [4] was 15.2 µM (inactive) and the GI50 [5] was 9.71 µM (inactive). The GI50 [7] was 18.8 µM (inactive), the GI50 [8] was > 25 µM (inactive) and the GI50 [10] was > 25 µM (inactive). For the same compound, the GI50 [11] was > 25 µM (inactive), the GI50 [12] was > 25 µM (inactive) and the GI50 [13] was > 25 µM (inactive). For the same compound, the GI50 [14] was > 25 µM (inactive), the GI50 [16] was 14.3 µM (inactive) and the GI50 [19] was > 25 µM (inactive). For the same compound, the GI50 [17] was 11.4 µM (inactive).

With `COc1ccc(-c2nc(-c3cnccn3)n(C/C=C/c3ccccc3)n2)cc1` the GI50 [1] was > 100 µM (inactive), the GI50 [2] was over 100 µM and the GI50 [3] was > 100 µM (inactive). For the same compound, the GI50 [18] was > 100 µM (inactive), the GI50 [4] was 48.1 µM (inactive) and the GI50 [5] was > 100 µM (inactive). For the same compound, the GI50 [7] was 21.5 µM (inactive), the GI50 [8] was 83.4 µM (inactive) and the GI50 [9] was > 100 µM (inactive). The GI50 [10] was 35.2 µM (inactive), the GI50 [12] was 47.9 µM (inactive) and the GI50 [13] was 17.3 µM (inactive). For the same compound, the GI50 [15] was > 100 µM (inactive), the GI50 [16] was > 100 µM (inactive) and the GI50 [19] was > 100 µM (inactive). The GI50 [17] was > 100 µM (inactive).

`C/C=C1\CNC1C(=O)O` (stereo unspecified) was tested, and the GI50 [1] was > 100 µM (inactive), the GI50 [2] was over 100 µM and the GI50 [18] was > 100 µM (inactive). For the same compound, the GI50 [4] was > 100 µM (inactive), the GI50 [5] was > 100 µM (inactive) and the GI50 [6] was > 100 µM (inactive). For the same compound, the GI50 [7] was > 100 µM (inactive), the GI50 [8] was > 100 µM (inactive) and the GI50 [9] was > 100 µM (inactive). The GI50 [10] was > 100 µM (inactive), the GI50 [11] was > 100 µM (inactive) and the GI50 [12] was > 100 µM (inactive). For the same compound, the GI50 [13] was > 100 µM (inactive), the GI50 [14] was > 100 µM (inactive) and the GI50 [15] was > 100 µM (inactive). The GI50 [16] was > 100 µM (inactive) and the GI50 [19] was > 100 µM (inactive).

For `C=C(C)[C@H]1CC[C@@]23O[C@@H]2[C@@H](C[C@@]2(C)CC(=O)[C@H](CC(=O)C1)O2)OC(=O)[C@@]12CC[C@H](C(=C)C)CC(=O)C[C@H]4O[C@](C)(CC4=O)C[C@@H](OC3=O)[C@@H]1O2` [SINGARDIN], the GI50 [1] was 91.8 µM (inactive), the GI50 [2] was over 100 µM and the GI50 [3] was > 100 µM (inactive). The GI50 [18] was > 100 µM (inactive), the GI50 [4] was 52.8 µM (inactive) and the GI50 [5] was > 100 µM (inactive). For the same compound, the GI50 [6] was > 100 µM (inactive), the GI50 [7] was > 100 µM (inactive) and the GI50 [8] was > 100 µM (inactive). The GI50 [10] was > 100 µM (inactive), the GI50 [12] was > 100 µM (inactive) and the GI50 [13] was > 100 µM (inactive). For the same compound, the GI50 [14] was > 100 µM (inactive), the GI50 [15] was > 100 µM (inactive) and the GI50 [16] was > 100 µM (inactive). The GI50 [19] was > 100 µM (inactive) and the GI50 [17] was 52.5 µM (inactive).

`C=CCCCN1C(=O)C2C3c4ccccc4C(C=O)(c4ccccc43)C2C1=O` (stereo unspecified) was tested, and the GI50 [1] was 3.58 µM (inactive), the GI50 [2] was 8.41 µM and the GI50 [3] was 11.4 µM (inactive). The GI50 [18] was 6.18 µM (inactive), the GI50 [4] was 13.6 µM (inactive) and the GI50 [5] was 12 µM (inactive). The GI50 [7] was 14.5 µM (inactive), the GI50 [8] was 10.9 µM (inactive) and the GI50 [9] was 15.2 µM (inactive). For the same compound, the GI50 [10] was 15.9 µM (inactive), the GI50 [12] was 13.4 µM (inactive) and the GI50 [13] was 13.3 µM (inactive). The GI50 [14] was 24 µM (inactive), the GI50 [15] was 14.7 µM (inactive) and the GI50 [19] was 9.89 µM (inactive). For the same compound, the GI50 [17] was 4.02 µM (inactive).

`NCCCCc1cc(O)c2c(c1O)C(=O)c1ccccc1C2=O` was tested, and the GI50 [1] was 3.77 µM (inactive), the GI50 [2] was 9.25 µM and the GI50 [3] was 12 µM (inactive). The GI50 [18] was 10.4 µM (inactive), the GI50 [4] was 8 µM (inactive) and the GI50 [5] was 3.94 µM (inactive). For the same compound, the GI50 [6] was 18.2 µM (inactive), the GI50 [7] was 8.39 µM (inactive) and the GI50 [8] was 12.6 µM (inactive). For the same compound, the GI50 [9] was 10.5 µM (inactive), the GI50 [10] was 17.5 µM (inactive) and the GI50 [12] was 5.09 µM (inactive). The GI50 [13] was 6 µM (inactive), the GI50 [14] was 17.4 µM (inactive) and the GI50 [15] was 12.6 µM (inactive). For the same compound, the GI50 [16] was 22.6 µM (inactive) and the GI50 [17] was 5.41 µM (inactive).
